Legend:
renal distal tubules [1] = assay: Intracellular Na+ imaging by 2-photon microscopy in SBFI-loaded live kidney slices ex vivo; type: cell-based, mice; conditions: for rFGF23-induced increase in intracellular Na^+ fluorescence (distal tubular Na^+ uptake): co-treatment with 200 ng/ml rFGF23, 2 h, iFGFR pan 120 nM; for decrease of SFBI fluorescence intensity in distal tubules: rFGF23-treated WT kidney slices, CTZ 10 µM
Procedure: (§1) The preparation of kidney slices for ex vivo experiments was performed as described in Andrukhova O et al. (EMBO J., 2014. 33, 229-246). Longitudinal 200-µm-thick live slices from freshly isolated kidneys of 3-month-old male WT and Klotho/VDR mice were prepared using a Leica VT1000 Vibratome (Leica Microsystems), and were used for ex vivo treatment with various substances as described below.
(§2) Longitudinal 200-µm-thick live slices of freshly isolated kidneys were prepared using a Leica VT1000 Vibratome (Leica Microsystems). For Na^+ imaging, the kidney slices of WT and Klotho/VDR mice were incubated for 60 min at 37°C with 2 µM of the sodium-sensitive dye SBFI (Molecular Probes), diluted in DMSO (Merck Millipore International) and 20% Pluronic (Merck Millipore International). For Ca^2+ imaging, the kidney slices were incubated for 30 min at 37°C with 2 µM of the calcium-sensitive dye Fluo-4 (Molecular Probes), diluted in DMSO and 20% Pluronic. Thereafter, the slices were washed two times for 20 min each in 0.1M PBS, and were subsequently incubated in vitro with vehicle (PBS), rFGF23 R176/179Q [(100 or 200 ng/ml) kindly provided by Amgen Inc., Thousand Oaks, CA, USA], PD173074 (Sigma-Aldrich) (10 nM for inhibiting FGFR1 and 25 nM for inhibiting FGFR1 and 3), pan FGFR inhibitor [(120 nM) FIIN1 hydrochloride, Tocris Bioscience, Bristol, UK)], WNK signalling inhibitor Closantel (30 ng/mL, generous gift of Dario R. Alessi) alone or combined at 37°C, 5% CO2 / 95% air humidified atmosphere for 2 h. […] For visualization of intracellular Na^+ and Ca^2+ content, SBFI or Fluo-4 were excited by a Ti:sapphire laser (Chameleon, Coherent Inc.) at 820 nm. Images (512 × 512 pixels) were acquired every 30 sec at a depth of 60 - 80 µm. Fluorescence images were analyzed using Image J software. The whole epithelial layer of the distal tubules was selected by manually drawing the region of interest (ROI) to quantify intracellular Na^+ and Ca^2+ levels. Fluorescence intensity was quantified in 4-9 ROIs per image, and the ratio between the fluorescence intensity and the ROI area was calculated for each tubule. This ratio was used for all subsequent calculations.
(§3) To gain more insight into the functional role of the rFGF23-induced increase in distal renal tubular ion channel expression and the FGF receptors involved, we performed intracellular Ca^2+ and Na^+ imaging by 2-photon microscopy in Fluo-4- or SFBI-loaded and subsequently rFGF23-treated (100 or 200 ng/ml for 2 h), 200-µm-thick renal slices prepared from WT and Klotho/VDR mice.
(§4) In this example it was assessed whether the Klotho-independent FGF23 signalling pathway is mediated through FGFR3 and/or 4, given that FGFR2 expression was low in distal renal tubules (Figure 12A). To dissect between the latter receptors, Klotho/VDR kidney slices were treated with rFGF23 alone or in combination with an FGFR1/FGFR3 inhibitor and the WNK signalling inhibitor closantel.

SPAK = SPAK (Homo sapiens, UniProt Q9UEW8); conditions: dose-dependent manner; literature (Yamada et al. 2016; Mori et al. 2013); cited from earlier work
WNK-SPAK binding = WNK-SPAK binding (Homo sapiens, UniProt Q9UEW8); conditions: literature (Mori et al. 2013); cited from earlier work
OSR1 = conditions: dose-dependent manner; literature (Yamada et al. 2016); cited from earlier work
renal distal tubules [2] = assay: Intracellular Ca2+ imaging by 2-photon microscopy in Fluo-4-loaded live kidney slices ex vivo; type: cell-based, mice; conditions: co-treatment with 200 ng/ml rFGF23, 2 h, iFGFR pan 120 nM
Procedure: as §1, §2, §3, §4

TRPV5 = TRPV5 (Homo sapiens, UniProt Q9NQA5); conditions: 1 µM; literature (Nilius et al. 2001); cited from earlier work
Chain of TRPV5 (Q9NQA5 whole entry, species assumed): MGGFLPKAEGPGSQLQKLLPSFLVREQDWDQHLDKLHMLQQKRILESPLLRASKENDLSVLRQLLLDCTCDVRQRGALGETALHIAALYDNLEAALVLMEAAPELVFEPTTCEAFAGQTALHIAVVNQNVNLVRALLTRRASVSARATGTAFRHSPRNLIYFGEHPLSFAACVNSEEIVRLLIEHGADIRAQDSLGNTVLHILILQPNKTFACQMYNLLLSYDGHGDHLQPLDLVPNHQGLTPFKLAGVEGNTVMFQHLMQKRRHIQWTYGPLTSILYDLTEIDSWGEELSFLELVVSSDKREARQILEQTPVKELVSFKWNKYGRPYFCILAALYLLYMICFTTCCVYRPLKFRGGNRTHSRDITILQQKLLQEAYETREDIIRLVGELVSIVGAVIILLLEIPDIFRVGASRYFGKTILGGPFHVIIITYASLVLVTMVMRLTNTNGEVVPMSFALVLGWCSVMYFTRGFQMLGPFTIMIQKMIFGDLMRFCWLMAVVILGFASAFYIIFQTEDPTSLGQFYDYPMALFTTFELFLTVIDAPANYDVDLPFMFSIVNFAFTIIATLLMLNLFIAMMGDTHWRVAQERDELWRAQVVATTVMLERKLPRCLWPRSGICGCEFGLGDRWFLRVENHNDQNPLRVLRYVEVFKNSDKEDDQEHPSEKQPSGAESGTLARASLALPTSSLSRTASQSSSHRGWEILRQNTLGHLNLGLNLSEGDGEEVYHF

TRPV6 = target: T1, TRPV6 (Homo sapiens, UniProt Q9H1D0); conditions: 1 µM; literature (Nilius et al. 2001); cited from earlier work
T1 sequence (Q9H1D0 1-765): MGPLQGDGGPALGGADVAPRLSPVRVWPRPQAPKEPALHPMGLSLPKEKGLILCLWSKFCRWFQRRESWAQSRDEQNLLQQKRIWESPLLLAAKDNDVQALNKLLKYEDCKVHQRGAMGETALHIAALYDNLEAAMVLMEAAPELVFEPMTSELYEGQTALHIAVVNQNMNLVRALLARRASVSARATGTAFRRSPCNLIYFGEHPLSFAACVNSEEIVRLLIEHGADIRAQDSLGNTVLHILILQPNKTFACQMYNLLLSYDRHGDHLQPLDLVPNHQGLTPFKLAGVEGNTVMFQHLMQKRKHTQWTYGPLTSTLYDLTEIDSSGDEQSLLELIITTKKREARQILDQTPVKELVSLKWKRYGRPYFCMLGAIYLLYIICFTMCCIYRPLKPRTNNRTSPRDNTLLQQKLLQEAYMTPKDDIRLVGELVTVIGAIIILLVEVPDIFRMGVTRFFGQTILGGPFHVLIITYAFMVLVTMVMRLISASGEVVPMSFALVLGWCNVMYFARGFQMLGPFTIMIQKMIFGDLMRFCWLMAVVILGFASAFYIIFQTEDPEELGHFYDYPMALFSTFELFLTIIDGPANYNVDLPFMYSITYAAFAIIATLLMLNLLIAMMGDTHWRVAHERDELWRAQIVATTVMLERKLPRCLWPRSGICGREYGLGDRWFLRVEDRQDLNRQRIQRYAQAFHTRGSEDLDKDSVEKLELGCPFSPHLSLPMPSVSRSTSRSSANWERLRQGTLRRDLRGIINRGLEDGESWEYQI

5/6 Nx C57BL/6 mice = assay: 5/6 nephrectomy with angiotensin II infusion via osmotic mini-pumps; type: in vivo; conditions: AngII- vs. vehicle-treated 5/6-Nx mice, 4 and 8 weeks postsurgery
Procedure: The 5/6 nephrectomy (5/6 Nx) was performed in two stages (Leelahavanichkul A et al., Kidney Int. 78, 2010. 1136-1153) under isoflurane anesthesia (Fig. 1A). Pain was managed by s.c. injections of buprenorphine, metamizol and meloxicam. Additionally, the animals were treated for 3 days postsurgery with the analgesic piritramid via the drinking water, starting 6 h postsurgery. At the first stage (wk -1), the left kidney was decapsulated to avoid ureter and adrenal damage, and the upper and lower poles were partially resected via a left flank incision. Bleeding was controlled by microfibrillar collagen hemostasis (Avitene, Davol, Cranston, RI). The upper and lower poles were weighed. One week later, the entire right kidney was removed via a right flank incision and weighed. Animals with insufficient kidney resection as determined by a ratio of < 0.55 for the removed left kidney weight to the removed right kidney weight were euthanized. In the Sham surgery control mice, a left flank incision was performed at step 1, both poles of kidney were identified, then the flank incision was closed; a subsequent right flank incision was performed at step 2; the right renal artery was identified, then the flank incision was closed. After each flank incision, muscles and skin were repositioned and sewed. Mortality was tracked throughout the study. Necropsy was not performed on animals that died early.
Angiotensin II (Ang II) 0.75 µg/kg/min (Sigma) in physiological saline or vehicle was infused by subcutaneous osmotic mini-pumps (Alzet model 1004, Cupertino, CA) (Leelahavanichkul A et al., Kidney Int. 78, 2010. 1136-1153). The osmotic minipumps were inserted subcutaneously at the back under isoflurane anesthesia at 5 days after right NX or Sham surgery (Fig. 1A).
In order to test susceptibility of C57BL/6 mice to 5/6 nephrectomy (5/6-Nx)- and angiotensin II (AngII) infusion-induced CKD, 5/6-Nx was performed and osmotic minipumps continuously releasing vehicle or AngII were thereafter implanted into male wild-type (WT) C57Bl/6 mice, which were then monitored over 8 weeks after 5/6-Nx. All mice were maintained on rescue diet.

[3] = Klotho/VDR kidney slices, closantel 30 ng/mL, BF 15 µM, PD173074 10 nM (iFGFR1) or 25 nM (FGFR1/3)
[4] = Klotho/VDR kidney slices, ruthenium red 10 µM, closantel 30 ng/mL, PD173074 10 nM (iFGFR1) or 25 nM (FGFR1/3)
[5] = WT kidney slices, ruthenium red 1 µM, iFGFR1 PD173074 10 nM
[6] = WT kidney slices, iFGFR1 PD173074 10 nM

Compound: CCCCNc1cc(C(=O)O)cc(S(N)(=O)=O)c1Oc1ccccc1 [BF, bumetanide]
- rFGF23-induced increase in intracellular Na^+ fluorescence (distal tubular Na^+ uptake) (renal distal tubules [1]; [3]): inhibited
- decrease of SFBI fluorescence intensity in distal tubules (renal distal tubules [1]; BF 15 µM): approximately 50%

Compound: NS(=O)(=O)c1cc2c(cc1Cl)N=CNS2(=O)=O [CTZ, chlorothiazide]
- decrease of SFBI fluorescence intensity in distal tubules (renal distal tubules [1]; BF 15 µM): approximately 50%

Compound: CCOc1ccc2nc3cc(NCc4ccco4)ccc3c(N)c2c1 [STOCK2S-26016, 7-Ethoxy-N3-(2-furanylmethyl)-3,9-acridinediamine]
- SPAK phosphorylation (SPAK): preventing
- WNK-SPAK binding (WNK-SPAK binding): preventing

Compound: CC(C)(C)NC(=O)c1cncn1C1CCN(c2ccc(-c3nnc(C(F)(F)F)o3)cn2)CC1 [WNK463, N-tert-butyl-3-[1-[5-[5-(trifluoromethyl)-1,3,4-oxadiazol-2-yl]pyridin-2-yl]piperidin-4-yl]imidazole-4-carboxamide]
- SPAK phosphorylation (SPAK): decreases
- OSR1 phosphorylation (OSR1): decreases

Compound: CCN(CC)CCCCNc1ncc2cc(-c3cc(OC)cc(OC)c3)c(NC(=O)NC(C)(C)C)nc2n1 [iFGFR1, PD173074]
- rFGF23-induced increase in intracellular Ca^2+ fluorescence (distal tubular Ca^2+ uptake) (renal distal tubules [2]; [4]): no effect
- rFGF23-induced increase in intracellular Ca^2+ fluorescence (distal tubular Ca^2+ uptake) (renal distal tubules [2]; Klotho/VDR kidney slices, ruthenium red 10 µM, closantel 30 ng/mL, PD173074 10 nM (iFGFR1) or 25 nM (FGFR1/3), listed as FGFR1/3 inhibitor): partially blocked
- rFGF23-induced increase in intracellular Ca^2+ fluorescence (distal tubular Ca^2+ uptake) (renal distal tubules [2]; [5]): largely blocked
- rFGF23-induced increase in intracellular Na^+ fluorescence (distal tubular Na^+ uptake) (renal distal tubules [1]; [3]): no effect
- rFGF23-induced increase in intracellular Na^+ fluorescence (distal tubular Na^+ uptake) (renal distal tubules [1]; Klotho/VDR kidney slices, closantel 30 ng/mL, BF 15 µM, PD173074 10 nM (iFGFR1) or 25 nM (FGFR1/3), listed as FGFR1/3 inhibitor): completely blocked
- rFGF23-induced increase in intracellular Na^+ fluorescence (distal tubular Na^+ uptake) (renal distal tubules [1]; [6]): largely blocked

Compound: C=CC(=O)Nc1cccc(CN2C(=O)N(c3c(Cl)c(OC)cc(OC)c3Cl)Cc3cnc(NCCCCN(CC)CC)nc32)c1.Cl [iFGFR pan, FIIN1 hydrochloride]
- rFGF23-induced increase in intracellular Ca^2+ fluorescence (distal tubular Ca^2+ uptake) (renal distal tubules [2]; [4]): completely blocked
- rFGF23-induced increase in intracellular Ca^2+ fluorescence (distal tubular Ca^2+ uptake) (renal distal tubules [2]; [5]): completely blocked
- rFGF23-induced increase in intracellular Na^+ fluorescence (distal tubular Na^+ uptake) (renal distal tubules [1]; [3]): completely blocked
- rFGF23-induced increase in intracellular Na^+ fluorescence (distal tubular Na^+ uptake) (renal distal tubules [1]; [6]): completely blocked

Compound: N.N.N.N.N.N.N.N.N.N.N.N.N.N.[Cl-].[Cl-].[Cl-].[Cl-].[Cl-].[Cl-].[O-2].[O-2].[Ru+3].[Ru+3].[Ru+4] [ruthenium red]
- rFGF23-induced increase in intracellular Ca^2+ fluorescence (distal tubular Ca^2+ uptake) (renal distal tubules [2]; [4]): antagonize
- rFGF23-induced increase in intracellular Ca^2+ fluorescence (distal tubular Ca^2+ uptake) (renal distal tubules [2]; [5]): reversed
- TRPV5 channel function (TRPV5): block
- TRPV6 channel function (TRPV6): not

Compound: Angiotensin II (DRVYIHPF; Angiotensin-2; UniProt P01019 25-32, looked up) [AngII, Angiotensin II (Sigma) infused by subcutaneous osmotic mini-pumps]
- GFR (5/6 Nx C57BL/6 mice; 0.75 µg/kg/min s.c. infusion): no significant differences
- azotemia (5/6 Nx C57BL/6 mice): no significant differences
- mean arterial pressure measured by arterial catheterization (5/6 Nx C57BL/6 mice): no significant differences
- proteinuria (5/6 Nx C57BL/6 mice): no significant differences

Source: patent EP3403652A1, “PREVENTION AND TREATMENT OF FIBROBLAST GROWTH FACTOR 23 (FGF23)-ASSOCIATED DISORDERS INCLUDING CHRONIC KIDNEY DISEASE (CKD)” (Veterinärmedizinische Universität Wien, priority 2017, dated 2018)
